{"source": "paper PMC6656724", "about": "(Communications Biology, 2019)", "key": {"[1]": {"assay": "Rat brain penetration study", "format": "in vivo, male Han Wistar rats", "details": "1b 5 mg/kg i.v.; for In blood, prodrug 1b / In brain, prodrug 1b / Unbound brain, prodrug 1b / concentration at 5 min / concentration at 15 min / concentration at 30 min / concentration at 60 min: single rats; for In brain, prodrug 1b / Unbound brain, prodrug 1b: listed as prodrug 1b; for concentration at 5 min / concentration at 15 min / concentration at 30 min / concentration at 60 min: intravenous, 5 mg free base/kg", "procedure": "Prodrug 1b was dosed as a bolus solution intravenously at 5 mg free base/kg (dose volume: 1 mL/kg; dose vehicle: 10% DMSO; 60% PEG400; 30% MilliQ H2O) to male Han Wistar rats (n = 12). At 5, 15, 30 and 60 min following intravenous bolus injection of prodrug 1b, […] (n = 3/timepoint) were placed under terminal anaesthesia with isofluorane. A blood sample was taken by cardiac puncture, the […] decapitated and the brain removed. Brain weight was noted and each brain homogenised with two volumes of methanol:water (1:1; 2 mL/g brain). Each blood sample was diluted with distilled water (1:2). Diluted blood and the brain homogenates were then stored frozen until preparation and analysis by UPLC-MS/MS, monitoring for prodrug 1b and production of inhibitor 1. For each rat at each timepoint for 1, the concentration in brain (ng/g) was divided by the concentration in blood (ng/mL) to give a brain:blood ratio. The mean value obtained was quoted.\nA rapid and sensitive ultra-performance chromatography/tandem mass spectrometry (UPLC-MS/MS) method was developed and validated for the determination of inhibitor 1 and prodrug 1b (rat only). Chromatographic analysis was conducted on a Waters Acquity™ UPLC system. Chromatographic separation was performed with an Acquity™ UPLC BEH C18 column (50 × 2.1 mm, 1.7 µm, 130Å; Waters Corp.) maintained at 40 °C in a column oven. The mobile phase consisted of water with 0.01% formic acid and ACN with 0.01 % formic acid and it was delivered at a flow rate of 0.6 mL/min under gradient eluent conditions within an analysis cycle time of 3 min. The mass detection was conducted on a Waters Xevo™ TQs mass spectrometer equipped with a ScanWave™ technology. Quantitation of the analyte was performed in electrospray positive ionisation mode (ESI^+) using multiple reaction monitoring. The optimised fragmentation transition was m/z = 270.17 → 196.19 (mouse) or m/z = 270.17 → 223.76 (rat) for inhibitor 1 and m/z = 297.83 → 195.74 for prodrug 1b (rat).\nSample extraction for blood and brain homogenate was by protein precipitation (1:3 or 1:6) using ACN containing suitable internal standard. Extracts were vortexed followed by centrifugation (2800 rpm for 10 min). An aliquot of each supernatant was then diluted two-fold in distilled water ready for analysis by UPLC-MS/MS.\nThe weighted 1/x^2 calibration line was linear in the dynamic range of 1–5000 ng/mL for inhibitor 1 and 1–1000 ng/mL for prodrug 1b with a correlation coefficient (r^2) > 0.99 (inhibitor 1) or 0.98 (prodrug 1b). The quality control samples (QC) were prepared by using the same spiking scheme as the calibration samples and up to four different target concentration brain levels: 2 ng/mL (LQC), 40 ng/mL (MQC), 100 ng/mL (HQC) and 2000 ng/mL. Data collection, peak integration and calculations were performed using MassLynx software, version 2.1."}, "MDR1 MDCK cell lines": {"system": "MDR1 MDCK cell lines", "assay": "in vitro", "format": "in vitro ADME, canine", "details": "MDR1 MDCK; listed as Inhibitor 1"}, "[2]": {"system": "wild type MDCK cell lines", "assay": "in vitro", "format": "in vitro ADME, canine", "details": "wild type MDCK; listed as Inhibitor 1"}, "MDR1 (P-glycoprotein)": {"biological_target": "MDR1 (P-glycoprotein) (Homo sapiens, UniProt P08183)", "sequence (P08183 whole entry)": "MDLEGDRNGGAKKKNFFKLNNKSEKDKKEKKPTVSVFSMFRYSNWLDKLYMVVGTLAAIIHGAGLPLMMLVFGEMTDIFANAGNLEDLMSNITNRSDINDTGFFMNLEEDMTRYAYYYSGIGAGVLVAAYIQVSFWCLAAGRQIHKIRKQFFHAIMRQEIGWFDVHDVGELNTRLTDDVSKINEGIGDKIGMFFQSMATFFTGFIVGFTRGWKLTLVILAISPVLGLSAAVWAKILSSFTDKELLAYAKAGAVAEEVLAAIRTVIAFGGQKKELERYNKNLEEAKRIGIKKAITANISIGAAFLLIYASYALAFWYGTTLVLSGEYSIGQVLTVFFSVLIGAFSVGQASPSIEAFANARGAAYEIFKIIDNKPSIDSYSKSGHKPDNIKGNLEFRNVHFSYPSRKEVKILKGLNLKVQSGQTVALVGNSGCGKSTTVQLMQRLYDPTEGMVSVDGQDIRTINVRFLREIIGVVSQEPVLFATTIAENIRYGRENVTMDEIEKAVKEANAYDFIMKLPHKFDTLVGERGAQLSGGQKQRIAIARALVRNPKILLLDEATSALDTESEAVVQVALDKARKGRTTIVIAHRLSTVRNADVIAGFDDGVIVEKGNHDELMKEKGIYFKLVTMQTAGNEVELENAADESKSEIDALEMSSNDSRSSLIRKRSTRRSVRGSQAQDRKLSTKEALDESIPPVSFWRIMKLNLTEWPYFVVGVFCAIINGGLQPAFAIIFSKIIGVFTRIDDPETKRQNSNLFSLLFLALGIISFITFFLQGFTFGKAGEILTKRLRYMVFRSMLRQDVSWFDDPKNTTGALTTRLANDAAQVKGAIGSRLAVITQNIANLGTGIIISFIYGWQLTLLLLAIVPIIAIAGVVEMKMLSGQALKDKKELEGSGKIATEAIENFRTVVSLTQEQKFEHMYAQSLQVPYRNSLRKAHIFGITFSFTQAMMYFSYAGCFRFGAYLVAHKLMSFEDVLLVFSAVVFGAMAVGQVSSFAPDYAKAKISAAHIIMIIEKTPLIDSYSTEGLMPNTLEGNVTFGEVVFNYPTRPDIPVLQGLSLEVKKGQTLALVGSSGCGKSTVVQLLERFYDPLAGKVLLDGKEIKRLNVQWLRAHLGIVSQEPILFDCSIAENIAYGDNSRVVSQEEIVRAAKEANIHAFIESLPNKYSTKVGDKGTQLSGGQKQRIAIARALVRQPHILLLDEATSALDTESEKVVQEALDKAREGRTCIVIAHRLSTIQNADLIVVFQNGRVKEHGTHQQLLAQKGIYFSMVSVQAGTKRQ", "format": "in vitro ADME", "details": "from effective efflux ratio", "procedure": "internal standard at each timepoint. […]\nincluding an analytical internal standard.\nApparent permeability (Papp) values were determined from the relationship: […]\nWhere V is the volume of each Transwell compartment (apical 125 µL, basolateral 600 µL), and concentrations are the relative MS responses for compound (normalized to internal standard) in the donor chamber before incubation and acceptor chamber at the end of the incubation. Area = area of cells exposed for drug transfer (0.33 cm 2).\nEfflux ratios (Papp B>A / Papp A>B) were calculated for each compound from the […]\nMDR1-MDCK cell line has been engineered to overexpress the efflux transporter, MDR1 (P-glycoprotein), and a finding of good permeability B>A, but poor […]\norder to confirm the involvement of MDR1 in any efflux seen, an “ef fective efflux ratio” (EER) was calculated by comparing compound efflux ratios (ER) in the two cell types, i.e. EER = ER (MDR1-MDCK)/ ER (wild-type MDCK). This ratio illustrates the effect of the over-expressed MDR1 normalised for the background movement of compound through the wild-type cells. […]\nCompound recovery from the wells was determined from MS responses (normalized to internal standard) in donor and acceptor chambers at the end of incubation compared to response in the donor chamber pre-incubation. […]"}, "[3]": {"assay": "Elimination in urine after intravenous administration", "format": "in vivo, female C57BL/6 mouse", "details": "mouse, 1 mg free base/kg i.v.", "procedure": "Supplementary Table 8. Elimination of inhibitor 1 in urine following single\nintravenous administration at 1 mg free base/kg to a female C57BL/6 mouse.\nTime Absolute amount of drug Amount of drug in urine"}}, "note": "Where “and” joins values, the source holds several entries; their conditions need not be identical. Equal entries are not always repeated. Where two headings read alike, the source gives them in different places."}
{"smiles": "CCOC(=O)CN1C(=O)COc2cc(C)c(Cl)c(C)c21", "note": "[1b]", "values": [{"measurement": "In blood, prodrug 1b", "setting": "[1]; 5 min", "result": "≤ 3", "unit": "ng/mL"}, {"measurement": "In brain, prodrug 1b", "setting": "[1]; 5 min", "result": "2623 ng/g and 2264 ng/g"}, {"measurement": "Unbound brain, prodrug 1b", "setting": "[1]; 5 min", "result": "42 ng/g and 36 ng/g"}, {"measurement": "In blood, prodrug 1b", "setting": "[1]; 15 min", "result": "≤ 3", "unit": "ng/mL"}, {"measurement": "In brain, prodrug 1b", "setting": "[1]; 15 min", "result": "715 ng/g and 791 ng/g"}, {"measurement": "Unbound brain, prodrug 1b", "setting": "[1]; 15 min", "result": "11 ng/g and 13 ng/g"}, {"measurement": "In blood, prodrug 1b", "setting": "[1]; 30 min", "result": "≤ 3", "unit": "ng/mL"}, {"measurement": "In brain, prodrug 1b", "setting": "[1]; 30 min", "result": 203, "unit": "ng/g"}, {"measurement": "Unbound brain, prodrug 1b", "setting": "[1]; 30 min", "result": 3, "unit": "ng/g"}, {"measurement": "In blood, prodrug 1b", "setting": "[1]; 60 min", "result": "≤ 3", "unit": "ng/mL"}, {"measurement": "concentration at 5 min", "setting": "[1]; male, Han Wistar, brain (unbound), 5 min, read-out: Unbound brain, prodrug 1b", "result": 38, "unit": "ng/g"}, {"measurement": "concentration at 15 min", "setting": "[1]; male, Han Wistar, brain (unbound), 15 min, read-out: Unbound brain, prodrug 1b", "result": 13, "unit": "ng/g"}, {"measurement": "concentration at 30 min", "setting": "[1]; male, Han Wistar, brain (unbound), 30 min, read-out: Unbound brain, prodrug 1b", "result": 4, "unit": "ng/g"}, {"measurement": "concentration at 5 min", "setting": "[1]; male, Han Wistar, brain, 5 min, read-out: In brain, prodrug 1b", "result": 2350, "unit": "ng/g"}, {"measurement": "concentration at 15 min", "setting": "[1]; male, Han Wistar, brain, 15 min, read-out: In brain, prodrug 1b", "result": 829, "unit": "ng/g"}, {"measurement": "concentration at 30 min", "setting": "[1]; male, Han Wistar, brain, 30 min, read-out: In brain, prodrug 1b", "result": 240, "unit": "ng/g"}, {"measurement": "concentration at 60 min", "setting": "[1]; male, Han Wistar, brain, 60 min, read-out: In brain, prodrug 1b", "result": 62, "unit": "ng/g"}, {"measurement": "concentration at 60 min", "setting": "[1]; male, Han Wistar, brain, 60 min, read-out: Unbound brain, prodrug 1b", "result": 1, "unit": "ng/g"}, {"measurement": "Tmax", "setting": "[1]; male, Han Wistar, brain, iv, read-out: Time of maximal concentration of 1b in the brain (converted)", "result": 5, "unit": "min"}, {"measurement": "concentration at 5 min", "setting": "[1]; male, Han Wistar, whole blood, 5 min, read-out: In blood, prodrug 1b", "result": "≤ 3", "unit": "ng/mL"}, {"measurement": "concentration at 15 min", "setting": "[1]; male, Han Wistar, whole blood, 15 min, read-out: In blood, prodrug 1b", "result": "≤ 3", "unit": "ng/mL"}, {"measurement": "concentration at 30 min", "setting": "[1]; male, Han Wistar, whole blood, 30 min, read-out: In blood, prodrug 1b", "result": "≤ 3", "unit": "ng/mL"}, {"measurement": "concentration at 60 min", "setting": "[1]; male, Han Wistar, whole blood, 60 min, read-out: In blood, prodrug 1b", "result": "≤ 3", "unit": "ng/mL"}]}
{"smiles": "Cc1cc2c(c(C)c1Cl)N(CC(=O)O)C(=O)CO2", "note": "[compound 1, (6-chloro-5,7-dimethyl-3-oxo-2,3-dihydro-4H-1,4-benzoxazin-4-yl) acetic acid]", "values": [{"measurement": "Papp A>B Mean", "setting": "MDR1 MDCK cell lines", "result": "~ 15 x 10-6 cm/sec"}, {"measurement": "Papp A>B Mean", "setting": "[2]", "result": "~ 15 x 10-6 cm/sec"}, {"measurement": "Substrate for P-glycoprotein", "setting": "MDR1 (P-glycoprotein)", "result": "not a substrate"}, {"measurement": "Absolute amount of drug recovered in urine", "setting": "[3]; 0 - 8 h", "result": 8.67, "unit": "µg"}, {"measurement": "Amount of drug in urine recovered", "setting": "[3]; 0 - 8 h", "result": 30.3, "unit": "% Dose"}, {"measurement": "Absolute amount of drug recovered in urine", "setting": "[3]; 8 - 24 h", "result": 0.15, "unit": "µg"}, {"measurement": "Amount of drug in urine recovered", "setting": "[3]; 8 - 24 h", "result": 0.5, "unit": "% Dose"}]}
